Results as given in patent US10377791B2, “Therapeutically active estratrienthiazole derivatives as inhibitors of 17 B-hydroxysteroid dehydrogenase, type 1” (FORENDO PHARMA LTD, priority 2013, dated 2019).

How the values were obtained:
[1] = target: T1, recombinant human 17β-HSD1 (Homo sapiens, UniProt P14061); test: Inhibition of recombinant human 17β-HSD1; format: biochemical; settings: inhibitor at 1 μM; 30 nM estrone, 1 mM NADPH, 30 min at RT; read-out: 17β-HDS1 Inhibition % at 1 μM
T1 construct: made in house; host or cells: Sd9 (Sf9) insect cells, baculovirus (Bac to Bac Expression System)
T1 sequence (P14061 1-328): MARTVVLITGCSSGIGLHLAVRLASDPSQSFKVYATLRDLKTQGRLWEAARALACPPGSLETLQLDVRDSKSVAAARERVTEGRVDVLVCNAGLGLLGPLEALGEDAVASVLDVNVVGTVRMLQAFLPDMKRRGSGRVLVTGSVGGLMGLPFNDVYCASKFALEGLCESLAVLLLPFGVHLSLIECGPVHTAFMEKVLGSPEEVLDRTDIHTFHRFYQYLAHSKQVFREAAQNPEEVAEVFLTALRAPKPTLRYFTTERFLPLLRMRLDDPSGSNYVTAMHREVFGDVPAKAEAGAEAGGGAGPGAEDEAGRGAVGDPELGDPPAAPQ
Experimental: Recombinant baculovirus was generated by the “Bac to Bac Expression System” (Invitrogen). Recombinant bacmid was transfected to Sd9 insect cells using “Cellfectin Reagent” (Invitrogen). 60 h later cells were harvested; the microsomal fraction was isolated as described by Puranen, T. J., Poutanen, M. H., Peltoketo, H. E., Vihko, P. T. and Vihko, R. K. (1994) Site-directed mutagenesis of the putative active site of human 17 β-hydroxysteroid dehydrogenase type 1. Biochem. J. 304: 289-293. Aliquots were stored frozen until determination of enzymatic activity.
Recombinant protein (1 μg/ml) was incubated in 20 mM KH2PO4 pH 7.4 with 30 nM estrone (including 800 000 cpm/ml of ^3H-estrone) and 1 mM NADPH for 30 min at RT, in the presence of the potential inhibitor at concentrations 1 μM or 0.1 μM. Inhibitor stock solutions were prepared in DMSO. Final concentration of DMSO was adjusted to 1% in all samples. The enzyme reaction was stopped by addition of 10% trichloroacetic acid (final concentration). Samples were centrifuged in a microtiter plate at 4000 rpm for 10 min. Supernatants were applied to reverse phase HPLC on a Waters Symmetry C18 column, equipped with a Waters Sentry Guard column. Isocratic HPLC runs were performed at RT at a flow rate of 1 ml/min in acetonitrile:water 48:52 as running solvent. Radioactivity was monitored in the eluate by a Packard Flow Scintillation Analyzer. Total radioactivity for estrone and estradiol were determined in each sample and percent conversion of estrone to estradiol was calculated according to the following formula:
(§1) [formula] Percent inhibition was calculated flowingly: % inhibition=100−% conversion

[2] = target: T2, recombinant human 17β-HSD2 (Homo sapiens, UniProt P37059); test: Inhibition of recombinant human 17β-HSD2; format: biochemical; settings: inhibitor at 1 μM; 50 nM estradiol, 1 mM NADH, 30 min at RT; read-out: 17β-HSD2 Inhibition % at 1 μM
T2 construct: made in house; host or cells: Sd9 (Sf9) insect cells, baculovirus (Bac to Bac Expression System)
T2 sequence (P37059 1-387): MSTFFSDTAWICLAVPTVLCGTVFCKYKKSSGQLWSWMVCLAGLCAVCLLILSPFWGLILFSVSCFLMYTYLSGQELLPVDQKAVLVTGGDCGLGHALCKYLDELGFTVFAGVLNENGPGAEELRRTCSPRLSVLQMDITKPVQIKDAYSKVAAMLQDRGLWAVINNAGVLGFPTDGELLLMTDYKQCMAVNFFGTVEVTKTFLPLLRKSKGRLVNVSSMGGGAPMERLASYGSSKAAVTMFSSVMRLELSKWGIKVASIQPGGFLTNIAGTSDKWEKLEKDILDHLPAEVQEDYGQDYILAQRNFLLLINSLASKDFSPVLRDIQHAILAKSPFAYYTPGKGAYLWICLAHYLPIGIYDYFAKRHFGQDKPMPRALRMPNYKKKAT
Experimental: Similarly to 17β-HSD1 the Recombinant baculovirus was generated by the “Bac to Bac Expression System” (Invitrogen). Recombinant bacmid was transfected to Sd9 insect cells using “Cellfectin Reagent” (Invitrogen). 60 h later cells were harvested and supernatant were fractionated by the following protocol: • cells were dissolved into 40 ml of A-buffer (40 mM TRIS, pH8.0, 20% glycerol, 20 μM NAD, 0.4 mM PMSF, 150 mM NaCl, 0.5% dodecyl-β-maltoside+protease inhibitor cocktail) • cells were sonicated • lysate was incubated on ice for 15 min • lysate was centrifuged 5000 rpm 15 min, +4° C. • centrifugation of the supernatant 180 000 g 30 min, +4° C. • pellet was dissolved into 8 ml of A-buffer • not resuspended material was removed by centrifugation 5000 rpm 15 min, +4° C. • the clear supernatant was divided into 100 μl aliquots and were stored frozen until determination of enzymatic activity.
The amount of 17β-HSD2 was analysed by immunoblotting and total protein concentration of each extract batch was determined.
Recombinant protein (4 μg/ml) was incubated in 20 mM KH2PO4 pH 8.5 with 50 nM estradiol (including 800 000 cpm/ml of ^3H-estradiol) and 1 mM NADH for 30 min at RT, in the presence of the potential inhibitor at concentrations 1 μM or 0.1 μM. Inhibitor stock solutions were prepared in DMSO. Final concentration of DMSO was adjusted to 1% in all samples. The enzyme reaction was stopped by addition of 10% trichloroacetic acid (final concentration). Samples were centrifuged in a microtiter plate at 4000 rpm for 10 min. Supernatants were applied to reverse phase HPLC on a Waters Symmetry C18 column, equipped with a Waters Sentry Guard column. Isocratic HPLC runs were performed at RT at a flow rate of 1 ml/min in acetonitrile:water 48:52 as running solvent. Radioactivity was monitored in the eluate by a Packard Flow Scintillation Analyzer. Total radioactivity for estrone and estradiol were determined in each sample and percent conversion of estradiol to estrone was calculated according to the following formula:
as §1

| SMILES | inhibition at 1 µM [1] [%] | inhibition at 1 µM [2] [%] |
| --- | --- | --- |
| Cc1cnc(NC(=O)CC[C@@H]2CC(=O)[C@@]3(C)CCC4c5ccc6ocnc6c5CCC4C23)s1 (stereo partly drawn) [Compound 46, 3-((7aS,10R)-7a-methyl-8-oxo-6,7,7a,8,9,10,10a,10b,11,12-decahydro-5bH-cyclopenta[7,8]phenanthro[1,2-d]oxazol-10-yl)-N-(5-methylthiazol-2-yl)propanamide] | 87 | 3 |
| Cc1nc2cc3c(cc2o1)CCC1C3CC[C@]2(C)C(=O)C[C@@H](CCC(=O)Nc3ncc(C)s3)C12 (stereo partly drawn) [Compound 48, 3-((3R,12aS)-8,12a-dimethyl-1-oxo-2,3,3a,3b,4,5,10b,11,12,12a-decahydro-1H-cyclopenta[7,8]phenanthro[3,2-d]oxazol-3-yl)-N-(5-methylthiazol-2-yl)propanamide] | 91 | 2 |
| Cc1nc2c3c(ccc2o1)C1CC[C@]2(C)C(=O)C[C@@H](CCC(=O)Nc4ncc(C)s4)C2C1CC3 (stereo partly drawn) [Compound 49, 3-((7aS,10R)-2,7a-dimethyl-8-oxo-6,7,7a,8,9,10,10a,10b,11,12-decahydro-5bH-cyclopenta[7,8]phenanthro[1,2-d]oxazol-10-yl)-N-(5-methylthiazol-2-yl)propanamide] | 84 | 1 |
| Cc1cnc(NC(=O)CC[C@@H]2CC(=O)[C@@]3(C)CCC4c5cc6[nH]c(=O)oc6cc5CCC4C23)s1 (stereo partly drawn) [Compound 50, 3-((3R,12aS)-12a-methyl-1,8-dioxo-2,3,3a,3b,4,5,8,9,10b,11,12,12a-dodecahydro-1H-cyclopenta[7,8]phenanthro[3,2-d]oxazol-3-yl)-N-(5-methylthiazol-2-yl)propanamide] | 91 | 40 |
| Cc1cnc(NC(=O)CC[C@@H]2CC(=O)[C@@]3(C)CCC4c5ccc6oc(=O)[nH]c6c5CCC4C23)s1 (stereo partly drawn) [Compound 51, 3-((7aS,10R)-7a-methyl-2,8-dioxo-2,5b,6,7,7a,8,9,10,10a,10b,11,12-dodecahydro-1H-cyclopenta[7,8]phenanthro[1,2-d]oxazol-10-yl)-N-(5-methylthiazol-2-yl)propanamide] | 78 | 1 |
| COc1cc2c(cc1I)C1CC[C@]3(C)C(=O)C[C@@H](CCC(=O)Nc4ncc(C)s4)C3C1CC2 (stereo partly drawn) [Compound 52, 3-((13S,15R)-2-iodo-3-methoxy-13-methyl-17-oxo-7,8,9,11,12,13,14,15,16,17-decahydro-6H-cyclopenta[a]phenanthren-15-yl)-N-(5-methylthiazol-2-yl)propanamide] | 93 | 1 |
| Cc1cnc(NC(=O)CC[C@@H]2CC(=O)[C@@]3(C)CCC4c5cc(I)c(O)c(I)c5CCC4C23)s1 (stereo partly drawn) [Compound 53, 3-((13S,15R)-3-hydroxy-2,4-diiodo-13-methyl-17-oxo-7,8,9,11,12,13,14,15,16,17-decahydro-6H-cyclopenta[a]phenanthren-15-yl)-N-(5-methylthiazol-2-yl)propanamide] | 94 | 5 |
| Cc1cnc(NC(=O)CC[C@@H]2CC(=O)[C@@]3(C)CCC4c5ccc(O)c(I)c5CCC4C23)s1 (stereo partly drawn) [Compound 54, 3-((13S,15R)-3-hydroxy-4-iodo-13-methyl-17-oxo-7,8,9,11,12,13,14,15,16,17-decahydro-6H-cyclopenta[a]phenanthren-15-yl)-N-(5-methylthiazol-2-yl)propanamide] | 86 | 4 |
| Cc1cnc(NC(=O)CC[C@@H]2CC(=O)[C@@]3(C)CCC4c5cc(I)c(O)cc5CCC4C23)s1 (stereo partly drawn) [Compound 55, 3-((13S,15R)-3-hydroxy-2-iodo-13-methyl-17-oxo-7,8,9,11,12,13,14,15,16,17-decahydro-6H-cyclopenta[a]phenanthren-15-yl)-N-(5-methylthiazol-2-yl)propanamide] | 98 | 7 |
| Cc1cnc(NC(=O)CC[C@@H]2CC(=O)[C@@]3(C)CCC4c5cc(Br)c(O)cc5CCC4C23)s1 (stereo partly drawn) [Compound 56, 3-((13S,15R)-2-bromo-3-hydroxy-13-methyl-17-oxo-7,8,9,11,12,13,14,15,16,17-decahydro-6H-cyclopenta[a]phenanthren-15-yl)-N-(5-methylthiazol-2-yl)propanamide] | 93 | 18 |
| Cc1cnc(NC(=O)CC[C@@H]2CC(=O)[C@@]3(C)CCC4c5ccc(O)c(Br)c5CCC4C23)s1 (stereo partly drawn) [Compound 57, 3-((13S,15R)-4-bromo-3-hydroxy-13-methyl-17-oxo-7,8,9,11,12,13,14,15,16,17-decahydro-6H-cyclopenta[a]phenanthren-15-yl)-N-(5-methylthiazol-2-yl)propanamide] | 92 | 16 |
| Cc1cnc(NC(=O)CC[C@@H]2C(Br)C(=O)[C@@]3(C)CCC4c5cc(Br)c(O)c(Br)c5CCC4C23)s1 (stereo partly drawn) [Compound 59, N-(5-methylthiazol-2-yl)-3-((13S,15S)-2,4,16-tribromo-3-hydroxy-13-methyl-17-oxo-7,8,9,11,12,13,14,15,16,17-decahydro-6H-cyclopenta[a]phenanthren-15-yl)propanamide] | 79 | 2 |
| Cc1cnc(NC(=O)CC[C@@H]2CC(=O)[C@@]3(C)CCC4c5ccc(O)c(Cl)c5CCC4C23)s1 (stereo partly drawn) [Compound 63, 3-((13S,15R)-4-chloro-3-hydroxy-13-methyl-17-oxo-7,8,9,11,12,13,14,15,16,17-decahydro-6H-cyclopenta[a]phenanthren-15-yl)-N-(5-methylthiazol-2-yl)propanamide] | 99 | 21 |
| Cc1cnc(NC(=O)CC[C@@H]2CC(=O)[C@@]3(C)CCC4c5cc(Cl)c(O)cc5CCC4C23)s1 (stereo partly drawn) [Compound 64, 3-((13S,15R)-2-chloro-3-hydroxy-13-methyl-17-oxo-7,8,9,11,12,13,14,15,16,17-decahydro-6H-cyclopenta[a]phenanthren-15-yl)-N-(5-methylthiazol-2-yl)propanamide] | 98 | 5 |
| Cc1cnc(NC(=O)CC[C@@H]2CC(=O)[C@@]3(C)CCC4c5ccc(O)c(F)c5CCC4C23)s1 (stereo partly drawn) [Compound 66, 3-((13S,15R)-4-fluoro-3-hydroxy-13-methyl-17-oxo-7,8,9,11,12,13,14,15,16,17-decahydro-6H-cyclopenta[a]phenanthren-15-yl)-N-(5-methylthiazol-2-yl)propanamide] | 98 | 8 |
